Values belong to the molecule of their own block, whether it stands above or below them.
Assays:
[1] = tested on: D. suzukii; test: field tests in 2016, baited traps; type: in vivo, Drosophila suzukii; details: Nov.-Dec. 2016, FIG. 7-11
Method: (§1) Field test: Commercially-available Victor® yellowjacket and flying insect traps (Great Lakes IPM Inc., Vestaburg, Mich.) filled with ˜300 mL of tap water containing a surfactant (Seventh Generation™ natural dish liquid—free and clear, Shoppers Food and Pharmacy, College Park, Md., 4 mL/gallon) as a drowning solution were used in all field tests at the Beltsville Agricultural Research Center-West, Beltsville, Md. (10300 Baltimore Ave., Beltsville, Md.) and at the blueberry field at Butler's Orchard (22222 Davis Mill Rd, Germantown, Md.). […]
(§2) The preliminary field tests were conducted at the Beltsville Agricultural Research Center during Oct. […] In 2015 and 2016, three additional treatments were formulated: treatment 14 ((2-components, including acetoin (AT) and ethyl octanoate (EO) in 1:1 ratio), treatment 16 (single-component, acetoin (AT)), and treatment 17 (single-component, ethyl octanoate (EO)). The rest of the compounds, including ethanol (EtOH) (10 mL) and acetic acid (AA) (1 mL), were added into drowning water and evaluated as individual attractant or synergistic attractive agent whenever needed. In 2016, ACV (300 mL, Essential Everyday®, 5% acidity, Shoppers Food and Pharmacy, College Park, Md.) and a commercially-available Scentry® SWD lure (Great Lakes IPM Inc., Vestaburg, Mich.) were used as standard lures for SWD attraction activity comparison. […]

[2] = tested on: D. suzukii; test: laboratory two-choice bioassay (treatment vs. blank control); type: in vivo, Drosophila suzukii; details: for attraction against blank control: 20 μL standard dose, FIG. 3D, 3E; for D. suzukii that made choice: 20 μL, FIG. 3E; for attraction compared to a blank control: 50 μL total volume, N=15, FIG. 3C
Method: Laboratory behavioral bioassay: To identify the key components for D. suzukii attraction from the apple juice 7-components blend, a two-choice laboratory bioassay (testing chemical or chemical blend vs. blank control) was used and different combinations of 7-components were evaluated. A complete test apparatus consisted of a plastic cup containing two trap tubes with two lure vials, and a water wick (FIG. 2). The plastic cups were clear, cylindrical polypropylene food containers (946 mL, diameter 114 mm, height 127 mm, Paper Mart, CA). […] The polystyrene trap tubes (95 mm×28.5 mm, same as those used in insect rearing) were labeled “T” for treatment and “B” for blank control, respectively, and were then given the appropriate lure. Lures were either tested chemical/chemical blends (unless otherwise indicated, 20 μL pure individual or blend) loaded onto a small cotton ball held within a small polyethylene lure vial (26 mm×8 mm×1.5 mm thickness, Just Plastic Ltd., Norwich, UK) or blank controls of plain cotton or cotton with solvent (in dose response trials) held in the same type of small lure vial. Each lure vial (open lid) was placed vertically within its trap tube and then the top of each trap tube was sealed with Parafilm® (Pechiney plastics packaging Inc. Menasha, Wis.) leaving only a 4 mm diameter hole in the center to provide an entrance for attracted flies. Each pair of loaded trap tubes were then placed vertically on opposite sides of the test cups with the entrance holes facing upwards. A water wick consisting of a glass scintillation vial (20 mL, VWR, PA) filled with deionized water and plugged with a cotton ball was laid on the bottom of the plastic cup to serve as a water source for the flies during the experiment (FIG. 2). Flies were immobilized using a CO2 stream and 10 were transferred into each testing apparatus. The fully-assembled test apparatus cups were then covered with their ventilated lids. All assays were conducted in a fume hood (120-cm-length×60-cm-width×70-cm-height) using new lures and young flies (2-8 days post-eclosion) under 25° C., 60% RH, and a 16:8 hour (L:D) photoperiod. Mixed-sex D. suzukii were used in bioassays unless stated otherwise, and all flies within and outside treatment and control trap tubes were counted and sexed after 48 hours.
All statistical comparisons were considered for significance at α=0.05.

[3] = tested on: D. suzukii; test: field tests in 2015, baited traps; type: in vivo, Drosophila suzukii; details: for attraction of D. suzukii in the field: traps, Beltsville, late fall 2015, FIG. 4-6
Method: (§3) Field test: Commercially-available Victor® yellowjacket and flying insect traps (Great Lakes IPM Inc., Vestaburg, Mich.) filled with ˜300 mL of tap water containing a surfactant (Seventh Generation™ natural dish liquid—free and clear, Shoppers Food and Pharmacy, College Park, Md., 4 mL/gallon) as a drowning solution were used in all field tests at the Beltsville Agricultural Research Center-West, Beltsville, Md. (10300 Baltimore Ave., Beltsville, Md.) and at the blueberry field at Butler's Orchard (22222 Davis Mill Rd, Germantown, Md.). Unless otherwise indicated, pure chemical (individual or blend, 1 mL) was loaded onto a cotton ball held within a polypropylene flex micro-centrifuge tube (1.5 mL Eppendorf micro-centrifuge tube, VWR International, Radnor, Pa.) and the lid of the tube was then closed. Tubes filled only with a cotton ball were used as blank controls. The micro-centrifuge tube lure was opened and the lid was snapped into one of four holes on the cap of the Victor® trap, leaving the three remaining holes to serve as entrances for attracted insects. At the Beltsville Agricultural Research Center, traps were hung from the branches of trees on the edge of a small woodlot in blocks consisting of 3-5 treatments and 1 blank control with the traps spaced approximately 5 m apart within a group. The treatments were randomly arranged at different positions within the block and blocks were separated by 10-20 m. At the blueberry field in Butler's Orchard, traps were hung from the branches of blueberry bushes, deployed in blocks consisting of 3 treatments with the traps spaced approximately 5 m apart in a group. The traps were randomly arranged at different positions within the block and blocks were separated by 10-20 m.
The preliminary field tests were conducted at the Beltsville Agricultural Research Center during Oct. 17 to 24, 2014, using six different lures: (1) apple juice blend (treatment 1, 7-components based on apple juice fermentation products (FIG. 1), including isobutanol (IB):2-methyl butanol (2MB):3-methyl butanol (3MB):ethyl hexanoate (EH):acetoin (AT):ethyl octanoate (EO):methyl benzoate (MB) in natural ratios of 4:7:7:0.3:1:0.3:2) (v/v)), (2) raspberry blend (11-components blend, including butyl acetate:hexanal:2-heptanone:3-methyl-butanol:trans-2-hexenal:3-methyl-2-butyl acetate:2-heptanol:hexanol:cis-3-hexenol:6-methyl-5-hepten-2-ol:linalool; obtained from Sigma-Aldrich; mixed into an 11-component blend in natural ratios of 1:36:3:5:10:2:7:8:9:2:8 (v/v), respectively))(Abraham, J. et al., Environ. Entomol., 44 (2): 356-367 (2015)), (3) single component (2-methyl butanol (2MB)), (4) 3-methyl butanol (3MB), (5) binary components blend ((2MB+3MB in 1:1 ratio)), and (6) blank control. In 2015 and 2016, three additional treatments were formulated: treatment 14 ((2-components, including acetoin (AT) and ethyl octanoate (EO) in 1:1 ratio), treatment 16 (single-component, acetoin (AT)), and treatment 17 (single-component, ethyl octanoate (EO)). The rest of the compounds, including ethanol (EtOH) (10 mL) and acetic acid (AA) (1 mL), were added into drowning water and evaluated as individual attractant or synergistic attractive agent whenever needed. In 2016, ACV (300 mL, Essential Everyday®, 5% acidity, Shoppers Food and Pharmacy, College Park, Md.) and a commercially-available Scentry® SWD lure (Great Lakes IPM Inc., Vestaburg, Mich.) were used as standard lures for SWD attraction activity comparison. The amount of AA in the drowning solution in each trap was increased from 1 mL to 15 mL to reach the same acidity (5%) with ACV. In addition, ethyl acetate (EA) (5 mL) and phenethyl alcohol (PE) (1 mL) were added to the drowning solution and evaluated as individual attractants or synergistic attractive agents. Lure dispenser tubes and trap drowning solutions with captured insects were collected and replaced every week unless otherwise indicated. Flies were counted in the laboratory.

[4] = lure release rate from micro-centrifuge tube dispensers; type: physicochemical; details: for first order rate constant k of desorption: 1 mL loading, micro-centrifuge tube dispenser, fume hood
Method: Lure Release Rate: Release rates of three different kinds of attractants, including acetoin (AT), ethyl octanoate (EO), and a blend of AT and EO (ratio=1:1), were measured under controlled conditions in a laboratory fume hood. Each attractant (1 mL) was loaded onto cotton balls held in open micro-centrifuge tubes (1.5 mL, VWR International, Radnor, Pa.). Fifteen of these micro-centrifuge tubes (five of each tested attractant) were suspended on hooks in a fume hood (temperature: 20-25° C., face velocity: 129 feet/min). Each tube was weighed every 24-h or 72-h (weekend) and the amount of attractant residue was calculated and recorded over a period of two weeks.

[5] = tested on: D. suzukii; test: preliminary field test with baited traps, 2014; type: in vivo, Drosophila suzukii; details: for Mean ± SD (SWD captured): Oct. 17 to Oct. 24, 2014, 3 replicates; for Total no. SWD captured: Oct. 17 to Oct. 24, 2014, Beltsville, 3 replicates
Method: as §3
The preliminary field tests were conducted at the Beltsville Agricultural Research Center during Oct. […] In 2015 and 2016, three additional treatments were formulated: treatment 14 ((2-components, including acetoin (AT) and ethyl octanoate (EO) in 1:1 ratio), treatment 16 (single-component, acetoin (AT)), and treatment 17 (single-component, ethyl octanoate (EO)). The rest of the compounds, including ethanol (EtOH) (10 mL) and acetic acid (AA) (1 mL), were added into drowning water and evaluated as individual attractant or synergistic attractive agent whenever needed. In 2016, ACV (300 mL, Essential Everyday®, 5% acidity, Shoppers Food and Pharmacy, College Park, Md.) and a commercially-available Scentry® SWD lure (Great Lakes IPM Inc., Vestaburg, Mich.) were used as standard lures for SWD attraction activity comparison. […] In addition, ethyl acetate (EA) (5 mL) and phenethyl alcohol (PE) (1 mL) were added to the drowning solution and evaluated as individual attractants or synergistic attractive agents. […] Flies were counted in the laboratory.

[6] = tested on: other D. spp.; test: field tests in 2015, baited traps, non-target catch; type: in vivo; details: EtOH combined with the AT+AA blend; field 2015; FIG. 4
Method: as §1, §2

Compound: OCCc1ccccc1 [PE, phenethyl alcohol]
- attraction of D. suzukii in the field [1]: did not show any activity

Compound: CCCCCCCC(=O)OCC [EO, ethyl octanoate]
- attraction against blank control ([2]; 48 h): most attractive component
- D. suzukii that made choice ([2]; 48 h): 96%
- Mean ± SD (D. suzukii captured in tubes) ([2]; 50 μL loading, 5 replicates of 10 flies, 48 h): 9.80 ± 0.45a
- Total no. captured ([2]; 50 μL loading, 5 replicates, 50 flies tested in total, 48 h): 49
- effectiveness compared with other treatments ([2]; 50 μL loading, N=5): captured significantly more D. suzukii than trap vials baited with treatment 1
- attraction against blank control, dose response ([2]; all doses from 0.3 μL to 300 μL, FIG. 3F): Significantly attractive activities
- synergistic effect when combined with AA ([3]; field 2015): No synergistic effect
- attraction of D. suzukii in the field [3]: did not show any activity at all
- first order rate constant k of desorption [4]: 0.049 day⁻¹

Compound: CCC(C)CO (stereo not shown) [2MB, 2-methyl-1-butanol]
- Mean ± SD (SWD captured) [5]: 1.00 ± 1.00c
- Total no. SWD captured [5]: 3
- attraction against blank control ([2]; 48 h): repellent effect
- D. suzukii that made choice ([2]; 48 h): 37%

Compound: CC(=O)O [AA, acetic acid]
- attraction compared to a blank control [2]: not attractive
- attraction of D. suzukii in the field [3]: inactive by itself

Compound: CCO [EtOH, ethanol, reference compound]
- attraction compared to a blank control [2]: significantly more attractive
- SWD specificity of the blend ([3]; ethanol added to blend of AT and AA): ~30%
- attraction of D. suzukii in the field [3]: did not show significant activity
- trap catch of non-target Drosophila [6]: attracted significantly more non-target Drosophila

Compound: CCOC(C)=O [EA, ethyl acetate]
- attraction of D. suzukii in the field [1]: not attractive in the field

- time to release 50% (half-life of dispenser, t1/2=0.693/k) [4]: ~48 h
Compound: CC(=O)C(C)O (stereo not shown) [AT, 3-hydroxy-2-butanone]
- attraction against blank control ([2]; 48 h): elicited attraction
- attraction against blank control ([2]; 48 h, listed as Acetoin): moderate activity
- attraction of D. suzukii in the field [3]: significantly more attractive than EO
- first order rate constant k of desorption [4]: 0.316 day⁻¹

Compound: CC(C)CCO [3MB, 3-methyl-1-butanol]
- Mean ± SD (SWD captured) [5]: 3.00 ± 1.00c
- Total no. SWD captured [5]: 9

— patent publication US10638754B2, “Methods of attracting Drosophila suzukii using acetoin blend” (The United States of America, as Represented by the …, priority 2016, dated 2020)
